# Source: patent US20230265425A1, “lncRNA-REGULATED GENE EXPRESSION SYSTEM” (MEMORIAL SLOAN KETTERING CANCER CENTER, priority 2020, published 2023)
# Like-named read-outs stand apart in the source and are kept apart here.
# Assays:
# [1] = test system: Pho1 acid phosphatase; test: Acid phosphatase activity assay of plasmid-bearing pho4Δ pho1Δ cells; conditions: for Pho1 activity, % of the level attained with 15 μM thiamine: pTIN-pho1 cells
# Method: Acid phosphatase activity assay. Aliquots of exponentially growing cultures were harvested, washed with water, and re-suspended in water. To quantify acid phosphatase activity, reaction mixtures (200 μl) containing 100 mM sodium acetate (pH 4.2), 10 mM p-nitrophenyl phosphate (NEB), and cells (ranging from 0.01 to 0.1 A600 units) were incubated for 5 min at 30° C. The reactions were quenched by addition of 1 ml of 1 M sodium carbonate; the cells were removed by centrifugation and the absorbance of the supernatant was measured at 410 nm. Acid phosphatase activity is expressed as the ratio of A410 (p-nitrophenol production) to A600 (cells). The data are averages (±SEM) of at least three assays using cells from three independent cultures.
# To assay the activity of this promoter system, pho1 was used as the reporter gene driven by the tgp1 promoter (FIG. 1A). Cell surface-associated Pho1 activity is readily assayable colorimetrically via the conversion ofp-nitrophenylphosphate to p-nitrophenol. The pho1 gene was cloned downstream of the tgp1 5′ UTR in the pTIN vector with its native 3′ flanking DNA to yield the pTIN-pho1 plasmid (FIG. 1A). To test background acid phosphatase levels, a promoter-less pTIN pho1 vector was constructed that lacked the DNA segment spanning the regulatory nmt1-promoternc·tgp1·tgp1 promoter region as well as the tgp1 5′ UTR and only contained the pho1 ORF. These plasmids were introduced into a strain in which the chromosomal pho1 and pho4 genes encoding the cell-surface acid phosphatases Pho1 and Pho4 were deleted. Plasmid-bearing pho1Δ pho4Δ cells were grown to mid-log phase in Leu^− PMG medium without thiamine and subsequently diluted and grown in Leu^− PMG medium with or without 15 μM thiamine. Pho1 acid phosphatase activity was measured by incubating dilutions of cells with p-nitrophenylphosphate and measuring its conversion to p-nitrophenol for 5 min at 30° C. The amount of product formed (within the linear range of detection) was normalized to cell density and is plotted on the y-axis in FIG. 1B.
# [2] = test system: pho1 mRNA; test: microbe, parasite or virus in culture; conditions: for fold induction at 15 µM: Schizosaccharomyces pombe
# Method: Total RNA prepared from harvested samples was analyzed by reverse transcription primer extension using a mixture of radiolabeled primers complementary to the pho1 (top panel) or the act1 (bottom panel) mRNAs. The reaction products were resolved by denaturing urea-PAGE and visualized by autoradiography. The images shown in the top and bottom panels are from a single exposure of one gel. For conciseness of the figure, the intervening lanes of the gel were cropped (represented by the thin line separating the 3 and 10-hour samples). The positions and sizes (in nucleotides) of DNA markers are indicated on the left. Fold-induction reflects the ratio of the act1-normalizedpho1 signal at the indicated time to time-0.
# RNA analysis. Total RNA was extracted via the hot phenol method (Köhrer K. and Domdey H., Method Enzymol: 398-405 (1991), which is hereby incorporated by reference) from 3 A600 units of harvested yeast cells. For analysis of specific transcripts by primer extension, aliquots (5 μg) of total RNA were templated for M-MuLV reverse transcriptase-catalyzed extensions of 5′ 32P-labeled oligodeoxynucleotide primers complementary to the phot and actl mRNAs in one reaction mix. The primer sequence for act1 was, 5′-[…] (SEQ ID NO: 12), and for pho1, 5′-[…] (SEQ ID NO: 13). The primer extension reactions were performed as described by Schwer B., et al., Nucleic Acids Res 26: 2050-2057 (1998), which is hereby incorporated by reference, and the products were analyzed by electrophoresis of the reaction mixtures through a 22-cm 8% polyacrylamide gel containing 7 M urea in 80 mM Tris-borate, 1.2 mM EDTA. The ^32P-labeled primer extension products were visualized by autoradiography of the dried gel. Quantification of pho1 and act1 mRNA levels was done by scanning the dried gel with a phosphorimager and analyzing the data in ImageQuant software.
# Pho1 acid phosphatase activity in pho1Δ pho4Δ A cells bearing the pTIN pho1 plasmid was determined as a function of time after addition of thiamine (FIG. 2A). […] To gauge the level of phol mRNA, primer extension analysis using a pho1-specific radiolabeled primer for reverse-transcription was used, in parallel with an actin gene-specific primer as a control.
smiles,measurement,setting,value
Cc1ncc(C[n+]2csc(CCO)c2C)c(N)n1 [thiamine],EC50,"[1]; Schizosaccharomyces pombe, read-out: dose of half maximal response (EC50) of Pho1 activity",69 ± 5 nM
same,fold induction at 15 µM,"[1]; Schizosaccharomyces pombe, read-out: fold induction of Pho1 activity",59
same,"rate of Pho1 activity increase between 7 and 11 hours, % of the initial rate (1 to 7 hours)",[1]; pTIN pho1 cells after addition of 15 μM thiamine,58%
same,fold increase in acid phosphatase activity,"[1]; pTIN pho1 cells, 15 μM thiamine vs thiamine-free medium, 21 hours",58 fold
same,fold increase in Pho1 level over the uninduced state,"[1]; pTIN pho1 cells, 23 hours after addition of 15 μM thiamine",53 fold
same,"Pho1 activity, % of the level attained with 15 μM thiamine",[1]; 0.01 μM thiamine,8%
same,"Pho1 activity, % of the level attained with 15 μM thiamine",[1]; 0.025 μM thiamine,16%
same,"Pho1 activity, % of the level attained with 15 μM thiamine",[1]; 0.05 μM thiamine,33%
same,"Pho1 activity, % of the level attained with 15 μM thiamine",[1]; 0.075 μM thiamine,54%
same,"Pho1 activity, % of the level attained with 15 μM thiamine",[1]; 0.1 μM thiamine,73%
same,"Pho1 activity, % of the level attained with 15 μM thiamine",[1]; 0.3 μM thiamine,93%
same,"Pho1 activity, % of the level attained with 15 μM thiamine",[1]; 3 μM thiamine,96%
same,fold increase in Pho1 activity on addition of thiamine,"[1]; pho1Δ pho4Δ cells bearing pTIN7m pho1, 22 hours",172 fold
same,thiamine concentration at which induction was saturated,[1]; pho1Δ pho4Δ cells bearing pTIN-pho1,≥ 0.3 µM
same,fold induction at 15 µM,"[2]; 0.5 h, read-out: pho1 mRNA fold induction (act1-normalized, vs time-0)",25
same,fold induction at 15 µM,"[2]; 1 h, read-out: pho1 mRNA maximum fold induction",61
same,transcriptional induction by the addition of thiamine (dynamic range of pTIN system),[2]; pTIN system,≤ 60 fold
same,time after induction at which target mRNA levels reach peak,"[2]; pTIN system, thiamine induction",≤ 1 h
same,"pho1 mRNA level, fold higher than the uninduced state","[2]; pTIN-pho1 cells, all times assayed after 1 hour",approximately 60 fold
